Our source for the IC50, AC50 and GI50 values is patent US20250332173A1, “COMPOUNDS AND METHODS FOR MODULATING NUCLEIC ACID SPLICING” (REMIX THERAPEUTICS INC., priority 2021, published 2025).

Test [1] deals with HTT. In words: HiBiT protein abundance assay, HTT HiBiT K562 cell line. Type of test: cell-based, human. The note with it: HiBiT K562 cell line, 24 hours, top dose 10 μM; read-out: Effect on protein abundance, HTT (IC50 category). In a few lines: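 Tagged-protein abundance measured by split-NanoBiT luminescence after lysis, following 24 h compound exposure (37° C; 10 μM top, 3-fold, 10 points; DMSO ≤0.25%) of HiBiT knock-in K562 cells. Percent response vs DMSO and unmodified-cell controls; 4-parameter logistic interpolation at 50% gave IC50.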

The test system of test [2] is HTT mRNA. The experiment in a line: RT-qPCR splicing assay, HTT canonical junction (CJ) and alternative junction (AJ) mRNA. To be noted: Homo sapiens; for AC50: increase in HTT alternative junction (AJ) mRNA, read-out: HTT AJ AC50. Type of test: cell-based, human. In a few lines: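 Splicing switches were read by TaqMan RT-qPCR on lysates, quantifying exon-exon junctions of the canonical and alternative-exon isoforms. Lysates came from K562 (GAPDH/GUSB reference) or A673 (PPIA reference) cells exposed 24 h to compound in 11 threefold steps from 10 uM, with DMSO ≤0.25%.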

The subject of test [3] is K562 (human chronic myelogenous leukemia) cells. In words: Cell Titer Glo 2.0 cell viability assay. To be noted: Homo sapiens, K562, 72 h, K562 cells, 72 hours, Cell Titer Glo 2.0; read-out: K562 GI50. Type of test: cell-based. For orientation: ATP-based viability assays read luminescence as a measure of living cells.
Setting [4] is: decrease in HTT canonical junction (CJ) mRNA, RT-qPCR, read-out: HTT CJ IC50.
The mark [5] stands for this setting: Table 5 panel, canonical junction qPCR, compound concentration having 50% response in CJ decrease, read-out: HTT IC50 (decrease in CJ mRNA levels).

Like-named read-outs stand apart in the source and are kept apart here.

The IC50 is the concentration that inhibits the measured activity by half. For orientation: AC50 means the midpoint of the concentration-response curve, whichever way the signal moves. The GI50 is the concentration giving 50% growth inhibition. For `Cc1cn2cc(-c3cc(F)c4c(=O)n(C5CCNC6(CC6)C5)ccc4c3)cc(Cl)c2n1` (centres unmarked) [Compound 413, 2-{4-azaspiro[2.5]octan-7-yl}-6-{8-chloro-2-methylimidazo[1,2-a]pyridin-6-yl}-8-fluoroisoquinolin-1-one], the IC50 in test [1], in test [2] (setting [4]) and in test [2] (setting [5]) was below 100 nM throughout. Besides, in test [2] (RT-qPCR), the AC50 is below 100 nM. Moreover, the GI50 in test [3] is below 100 nM.
For the molecule `Cn1cc2cc(-c3cc(F)c4c(=O)n(C5CCNC6(CC6)C5)ccc4c3)c(O)cc2n1` (centres unmarked) [Compound 414, 2-{4-azaspiro[2.5]octan-7-yl}-8-fluoro-6-(6-hydroxy-2-methylindazol-5-yl)isoquinolin-1-one], the IC50 in test [1], in test [2] (setting [4]) and in test [2] (setting [5]) was 1000 to 10000 nM throughout. Moreover, the AC50 in test [2] (RT-qPCR) lay in the range of 1000 to 10000 nM. Besides, the GI50 in test [3] was above 10000 nM.
For `Cc1cc(-c2cc(F)c3c(=O)n(C4CCNC5(CC5)C4)ccc3c2)cc2cn(C)nc12` (centres unmarked) [Compound 415, 2-{4-azaspiro[2.5]octan-7-yl}-6-(2,7-dimethylindazol-5-yl)-8-fluoroisoquinolin-1-one], the IC50 in test [1], in test [2] (setting [4]) and in test [2] (setting [5]) was below 100 nM in each case. In addition, the AC50 in test [2] (RT-qPCR) was below 100 nM. Besides, in test [3], the GI50 is 100 to 1000 nM.
Regarding `Cc1cn2cc(-c3cc(F)c4c(=O)n(C5CCNC6(CC6)C5)ccc4c3)cc(C)c2n1` (centres unmarked) [Compound 416, 2-{4-azaspiro[2.5]octan-7-yl}-6-{2,8-dimethylimidazo[1,2-a]pyridin-6-yl}-8-fluoroisoquinolin-1-one], the IC50 in test [1] was below 100 nM; in test [2] (setting [4]) it was 100 to 1000 nM; in test [2] (setting [5]), 100 to 1000 nM. Further, the AC50 in test [2] (RT-qPCR) lay within 100 to 1000 nM. Also, in test [3], the GI50 is below 100 nM.
As for `Cc1nc2c(F)cc(-c3cc(F)c4c(=O)n(C5CCNC6(CC6)C5)ccc4c3)cc2o1` (centres unmarked) [Compound 417, 2-{4-azaspiro[2.5]octan-7-yl}-8-fluoro-6-(4-fluoro-2-methyl-1,3-benzoxazol-6-yl)isoquinolin-1-one], the IC50 in test [1], in test [2] (setting [4]) and in test [2] (setting [5]) was below 100 nM each time. The AC50 in test [2] (RT-qPCR) is below 100 nM. The GI50 in test [3] is below 100 nM.
With `Cc1nc2c(C)cc(-c3cc(F)c4c(=O)n(C5CCNC6(CC6)C5)ccc4c3)cc2o1` (centres unmarked) [Compound 418, 2-{4-azaspiro[2.5]octan-7-yl}-6-(2,4-dimethyl-1,3-benzoxazol-6-yl)-8-fluoroisoquinolin-1-one], the IC50 in test [1], in test [2] (setting [4]) and in test [2] (setting [5]) was below 100 nM throughout. For the same molecule, the half-maximal activity concentration (AC50) in test [2] (RT-qPCR) is below 100 nM. In test [3], the GI50 lay in the range of 100 to 1000 nM.
On to `Cc1c(O)c(-c2cc(F)c3c(=O)n(C4CCNC5(CC5)C4)ccc3c2)cc2cn(C)nc12` (centres unmarked) [Compound 419, 2-{4-azaspiro[2.5]octan-7-yl}-8-fluoro-6-(6-hydroxy-2,7-dimethylindazol-5-yl)isoquinolin-1-one], for which the IC50 in test [1], in test [2] (setting [4]) and in test [2] (setting [5]) was above 10000 nM each time. The AC50 in test [2] (RT-qPCR) is above 10000 nM. In addition, the GI50 in test [3] is above 10000 nM.
Consider `Cn1cc2cc(-c3cc(F)c4c(=O)n(C5CCNC6(CC6)C5)ccc4c3)c(O)c(F)c2n1` (centres unmarked) [Compound 420, 2-{4-azaspiro[2.5]octan-7-yl}-8-fluoro-6-(7-fluoro-6-hydroxy-2-methylindazol-5-yl)isoquinolin-1-one], for which the IC50 in test [1], in test [2] (setting [4]) and in test [2] (setting [5]) was 1000 to 10000 nM each time. Further, the AC50 in test [2] (RT-qPCR) was in the range of 1000 to 10000 nM. The GI50 in test [3] is 1000 to 10000 nM.
Consider `Cc1cn2cc(-c3cc(F)c4c(=O)n(C5CCNC6(CC6)C5)ccc4c3)c(O)c(C)c2n1` (centres unmarked) [Compound 421, 2-{4-azaspiro[2.5]octan-7-yl}-8-fluoro-6-{7-hydroxy-2,8-dimethylimidazo[1,2-a]pyridin-6-yl}isoquinolin-1-one], for which the IC50 in test [1], in test [2] (setting [4]) and in test [2] (setting [5]) was above 10000 nM throughout. Further, the AC50 in test [2] (RT-qPCR) was above 10000 nM. Also, the 50% growth inhibitory concentration (GI50) in test [3] was above 10000 nM.
Regarding `Cc1cn2nc(-c3cc(C)c4c(=O)n(C5CCNC6(CC6)C5)ncc4c3)cc(C)c2n1` (centres unmarked) [Compound 423, 6-(2,8-dimethylimidazo[1,2-b]pyridazin-6-yl)-8-methyl-2-(4-azaspiro[2.5]octan-7-yl)phthalazin-1(2H)-one], the IC50 in test [1], in test [2] (setting [4]) and in test [2] (setting [5]) was below 100 nM in each case. In addition, the AC50 in test [2] (RT-qPCR) was below 100 nM. Further, the GI50 in test [3] lay in the range of 100 to 1000 nM.
As for `Cc1cn2cc(-c3cc(F)c4c(=O)n(C5CCNC6(CC6)C5)ccc4c3)ncc2n1` (centres unmarked) [Compound 428, 8-fluoro-6-(2-methylimidazo[1,2-a]pyrazin-6-yl)-2-(4-azaspiro[2.5]octan-7-yl)isoquinolin-1(2H)-one], the IC50 in test [1] lay in the range of 100 to 1000 nM; in test [2] (setting [4]) it was 1000 to 10000 nM; in test [2] (setting [5]), 1000 to 10000 nM. Besides, the AC50 in test [2] (RT-qPCR) lay within 1000 to 10000 nM. Also, in test [3], the GI50 lay in the range of 1000 to 10000 nM.
On to `Cc1cc(-c2cc(F)c3c(=O)n(C4CCNC5(CC5)C4)ccc3c2)cc2c1nc(C)n2C` (centres unmarked) [Compound 429], for which the IC50 in test [1], in test [2] (setting [4]) and in test [2] (setting [5]) was above 10000 nM each time. Moreover, the AC50 in test [2] (RT-qPCR) is above 10000 nM. For the same molecule, the GI50 in test [3] was 1000 to 10000 nM.
As to `Cc1nc2c(F)cc(-c3cc(F)c4c(=O)n(C5CCNC6(CC6)C5)ccc4c3)cc2n1C` (centres unmarked) [Compound 430, 8-fluoro-6-(4-fluoro-1,2-dimethyl-1H-benzo[d]imidazol-6-yl)-2-(4-azaspiro[2.5]octan-7-yl)isoquinolin-1(2H)-one], the IC50 in test [1], in test [2] (setting [4]) and in test [2] (setting [5]) was above 10000 nM in each case. In addition, the AC50 in test [2] (RT-qPCR) is above 10000 nM. Besides, the GI50 in test [3] lay within 1000 to 10000 nM.
Take `Cc1cc(-c2cc(F)c3c(=O)n(C4CCNC5(CC5)C4)ccc3c2)nc2cn(C)nc12` (centres unmarked) [Compound 431]: the IC50 in test [1], in test [2] (setting [4]) and in test [2] (setting [5]) was below 100 nM throughout. The AC50 in test [2] (RT-qPCR) was below 100 nM. Moreover, the GI50 in test [3] lay in the range of 100 to 1000 nM.
`Cc1cn2nc(-c3cc(O)c4c(=O)n(C5CCNC5)ccc4c3)cc(C)c2n1` (centres unmarked) [Compound 432, 6-{2,8-dimethylimidazo[1,2-b]pyridazin-6-yl}-8-hydroxy-2-(pyrrolidin-3-yl)isoquinolin-1-one]: the IC50 in test [1], in test [2] (setting [4]) and in test [2] (setting [5]) was 1000 to 10000 nM throughout. In addition, in test [2] (RT-qPCR), the AC50 was 1000 to 10000 nM. The GI50 in test [3] lay within 1000 to 10000 nM.
As to `Cc1cn2cc(-c3cc(O)c4c(=O)n(C5CCNC5)ccc4c3)cc(C#N)c2n1` (centres unmarked) [Compound 433, 6-(8-hydroxy-1-oxo-2-(pyrrolidin-3-yl)-1,2-dihydroisoquinolin-6-yl)-2-methylimidazo[1,2-a]pyridine-8-carbonitrile], the IC50 in test [1], in test [2] (setting [4]) and in test [2] (setting [5]) was above 10000 nM in each case. In addition, the AC50 in test [2] (RT-qPCR) is above 10000 nM. The GI50 in test [3] was in the range of 1000 to 10000 nM.
Regarding `Cc1cn2cc(-c3cc(F)c4c(=O)n(C5CCNC5)ccc4c3)cc(C#N)c2n1` (centres unmarked) [Compound 434, 6-[8-fluoro-1-oxo-2-(pyrrolidin-3-yl)isoquinolin-6-yl]-2-methylimidazo[1,2-a]pyridine-8-carbonitrile], the IC50 in test [1], in test [2] (setting [4]) and in test [2] (setting [5]) was above 10000 nM throughout. For the same molecule, the AC50 in test [2] (RT-qPCR) was above 10000 nM. Besides, the GI50 in test [3] lay in the range of 1000 to 10000 nM.
On to `Cc1cn2cc(-c3ccc4c(=O)n(C5CCNCC5)cc(C)c4c3)cc(F)c2n1` [Compound 440, 6-{8-fluoro-2-methylimidazo[1,2-a]pyridin-6-yl}-4-methyl-2-(piperidin-4-yl)isoquinolin-1-one], for which the IC50 in test [1], in test [2] (setting [4]) and in test [2] (setting [5]) was 100 to 1000 nM each time. Further, the AC50 in test [2] (RT-qPCR) was in the range of 100 to 1000 nM. The GI50 in test [3] was below 100 nM.
Consider `Cc1cn2cc(-c3ccc4c(=O)n(C5CCNC5)cc(C)c4c3)cc(F)c2n1` (centres unmarked) [Compound 441, 6-{8-fluoro-2-methylimidazo[1,2-a]pyridin-6-yl}-4-methyl-2-(pyrrolidin-3-yl)isoquinolin-1-one], for which the IC50 was 1000 to 10000 nM in test [1], above 10000 nM in test [2] (setting [4]) and above 10000 nM in test [2] (setting [5]). Also, the AC50 in test [2] (RT-qPCR) was above 10000 nM. In addition, the GI50 in test [3] was in the range of 1000 to 10000 nM.
Regarding `Cc1cn2cc(-c3ccc4c(=O)n(C5CCNC5)cc(C)c4c3)cc(C#N)c2n1` (centres unmarked) [Compound 442, 2-methyl-6-[4-methyl-1-oxo-2-(pyrrolidin-3-yl)isoquinolin-6-yl]imidazo[1,2-a]pyridine-8-carbonitrile], the IC50 in test [1], in test [2] (setting [4]) and in test [2] (setting [5]) was above 10000 nM each time. For the same molecule, the AC50 in test [2] (RT-qPCR) is above 10000 nM. Besides, the 50% growth inhibitory concentration (GI50) in test [3] was above 10000 nM.
Turning to `Cc1cn2nc(-c3ccc4c(=O)n([C@H]5CCNC6(CC6)C5)ccc4c3)cc(C)c2n1` [Compound 445], the IC50 in test [1], in test [2] (setting [4]) and in test [2] (setting [5]) was below 100 nM each time. Further, the AC50 in test [2] (RT-qPCR) was below 100 nM. In addition, the GI50 in test [3] was below 100 nM.
As to `Cc1cn2nc(-c3cc(F)c4c(=O)n([C@@H]5CCNC6(CC6)C5)ncc4c3)cc(C)c2n1` [Compound 446], the IC50 in test [1], in test [2] (setting [4]) and in test [2] (setting [5]) was below 100 nM in each case. In addition, the half-maximal activity concentration (AC50) in test [2] (RT-qPCR) was below 100 nM. Further, the GI50 in test [3] was in the range of 100 to 1000 nM.
